Among the targets are AKT1 (Homo sapiens, UniProt P31749); BUB1 (Homo sapiens, UniProt O43683); CAMK2D (Homo sapiens, UniProt Q13557); CDK5 (Homo sapiens, UniProt Q00535); DAPK3 (Homo sapiens, UniProt O43293); EPHA6 (Homo sapiens, UniProt Q9UF33); FGFR3(G697C) (Homo sapiens, UniProt P22607, G697C); FLT3 (Homo sapiens, UniProt P36888); FRK (Homo sapiens, UniProt P42685); GRK4 (Homo sapiens, UniProt P32298); KIT(V559D) (Homo sapiens, UniProt P10721, V559D); MAK (Homo sapiens, UniProt P20794); PAK1 (Homo sapiens, UniProt Q13153); PAK2 (Homo sapiens, UniProt Q13177); PIK3CA(C420R) (Homo sapiens, UniProt P42336, C420R); PKN1 (Homo sapiens, UniProt Q16512); PLK2 (Homo sapiens, UniProt Q9NYY3); TGFBR2 (Homo sapiens, UniProt P37173).

What all share (test): biochemical
Design in all cases: DiscoverX kinase panel, active-site competition binding (KINOMEscan type), percent of control at one concentration
Common to all, as to details: competition binding, percent of control

The target in another test is T1, ABL1-phosphorylated (Homo sapiens, UniProt P00519).
T1 construct: phosphorylated

The next test has as its target T2, FAK (Homo sapiens, UniProt Q05397).
T2 construct: gene PTK2

For another test, the target named is T3, LZK (Homo sapiens, UniProt O43283).
T3 construct: gene MAP3K13

In the next test the target is T4, YANK2 (Homo sapiens, UniProt Q9NY57).
T4 construct: gene STK32B
T4 sequence (Q9NY57 whole entry): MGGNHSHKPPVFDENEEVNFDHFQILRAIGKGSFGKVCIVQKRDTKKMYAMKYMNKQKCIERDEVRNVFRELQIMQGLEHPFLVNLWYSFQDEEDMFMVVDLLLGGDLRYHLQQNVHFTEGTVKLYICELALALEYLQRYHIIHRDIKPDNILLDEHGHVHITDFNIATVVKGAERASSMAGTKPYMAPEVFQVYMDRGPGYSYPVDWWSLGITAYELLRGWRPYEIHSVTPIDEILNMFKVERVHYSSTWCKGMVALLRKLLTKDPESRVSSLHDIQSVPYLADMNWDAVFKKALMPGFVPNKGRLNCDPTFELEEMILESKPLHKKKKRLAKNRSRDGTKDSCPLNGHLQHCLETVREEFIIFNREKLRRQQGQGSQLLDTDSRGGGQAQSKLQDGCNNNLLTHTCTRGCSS

Chain of MAK (P20794 whole entry): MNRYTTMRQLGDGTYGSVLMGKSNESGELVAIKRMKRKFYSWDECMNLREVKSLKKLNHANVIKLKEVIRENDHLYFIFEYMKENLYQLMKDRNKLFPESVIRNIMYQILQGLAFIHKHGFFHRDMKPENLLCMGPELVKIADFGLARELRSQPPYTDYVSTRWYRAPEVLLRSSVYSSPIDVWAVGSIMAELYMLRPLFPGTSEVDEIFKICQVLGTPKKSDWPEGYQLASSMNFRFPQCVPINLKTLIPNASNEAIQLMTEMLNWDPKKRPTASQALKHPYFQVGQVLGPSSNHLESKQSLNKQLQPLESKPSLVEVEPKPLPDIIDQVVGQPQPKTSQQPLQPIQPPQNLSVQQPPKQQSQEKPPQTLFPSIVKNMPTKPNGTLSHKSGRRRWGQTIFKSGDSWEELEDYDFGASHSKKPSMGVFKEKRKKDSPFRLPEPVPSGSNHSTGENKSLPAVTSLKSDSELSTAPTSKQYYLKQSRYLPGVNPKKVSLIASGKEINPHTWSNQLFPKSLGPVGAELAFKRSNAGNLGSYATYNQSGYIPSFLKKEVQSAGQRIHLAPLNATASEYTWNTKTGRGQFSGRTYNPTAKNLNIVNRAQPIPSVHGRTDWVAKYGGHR
Chain of FRK (P42685 whole entry): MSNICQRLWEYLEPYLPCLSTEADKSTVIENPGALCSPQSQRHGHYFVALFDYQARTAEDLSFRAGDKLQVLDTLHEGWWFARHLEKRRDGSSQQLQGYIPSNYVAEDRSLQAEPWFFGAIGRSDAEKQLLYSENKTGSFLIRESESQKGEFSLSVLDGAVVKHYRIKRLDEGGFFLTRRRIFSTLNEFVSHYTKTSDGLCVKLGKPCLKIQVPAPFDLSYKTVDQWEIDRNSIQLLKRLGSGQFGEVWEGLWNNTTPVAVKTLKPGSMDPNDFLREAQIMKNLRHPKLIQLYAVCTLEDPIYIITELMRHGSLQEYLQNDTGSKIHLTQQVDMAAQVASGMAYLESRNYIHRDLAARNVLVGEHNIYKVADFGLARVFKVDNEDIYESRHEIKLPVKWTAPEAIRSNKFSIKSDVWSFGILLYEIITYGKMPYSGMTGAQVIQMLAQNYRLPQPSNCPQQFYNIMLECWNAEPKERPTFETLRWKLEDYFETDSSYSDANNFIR
Chain of PAK2 (Q13177 whole entry): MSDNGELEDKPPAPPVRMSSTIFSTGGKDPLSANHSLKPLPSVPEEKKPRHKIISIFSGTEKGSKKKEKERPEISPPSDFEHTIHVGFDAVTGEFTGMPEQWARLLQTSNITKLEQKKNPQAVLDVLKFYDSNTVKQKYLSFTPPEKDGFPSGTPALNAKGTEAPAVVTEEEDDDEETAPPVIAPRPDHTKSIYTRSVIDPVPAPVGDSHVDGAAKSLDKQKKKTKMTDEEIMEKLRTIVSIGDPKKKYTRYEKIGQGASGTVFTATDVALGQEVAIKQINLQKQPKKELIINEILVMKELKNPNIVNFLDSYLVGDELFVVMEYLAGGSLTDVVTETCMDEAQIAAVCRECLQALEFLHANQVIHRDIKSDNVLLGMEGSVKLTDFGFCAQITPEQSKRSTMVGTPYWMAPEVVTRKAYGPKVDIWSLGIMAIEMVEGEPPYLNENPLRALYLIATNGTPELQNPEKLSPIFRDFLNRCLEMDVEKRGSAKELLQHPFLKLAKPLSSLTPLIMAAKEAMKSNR
T1 sequence (P00519 whole entry): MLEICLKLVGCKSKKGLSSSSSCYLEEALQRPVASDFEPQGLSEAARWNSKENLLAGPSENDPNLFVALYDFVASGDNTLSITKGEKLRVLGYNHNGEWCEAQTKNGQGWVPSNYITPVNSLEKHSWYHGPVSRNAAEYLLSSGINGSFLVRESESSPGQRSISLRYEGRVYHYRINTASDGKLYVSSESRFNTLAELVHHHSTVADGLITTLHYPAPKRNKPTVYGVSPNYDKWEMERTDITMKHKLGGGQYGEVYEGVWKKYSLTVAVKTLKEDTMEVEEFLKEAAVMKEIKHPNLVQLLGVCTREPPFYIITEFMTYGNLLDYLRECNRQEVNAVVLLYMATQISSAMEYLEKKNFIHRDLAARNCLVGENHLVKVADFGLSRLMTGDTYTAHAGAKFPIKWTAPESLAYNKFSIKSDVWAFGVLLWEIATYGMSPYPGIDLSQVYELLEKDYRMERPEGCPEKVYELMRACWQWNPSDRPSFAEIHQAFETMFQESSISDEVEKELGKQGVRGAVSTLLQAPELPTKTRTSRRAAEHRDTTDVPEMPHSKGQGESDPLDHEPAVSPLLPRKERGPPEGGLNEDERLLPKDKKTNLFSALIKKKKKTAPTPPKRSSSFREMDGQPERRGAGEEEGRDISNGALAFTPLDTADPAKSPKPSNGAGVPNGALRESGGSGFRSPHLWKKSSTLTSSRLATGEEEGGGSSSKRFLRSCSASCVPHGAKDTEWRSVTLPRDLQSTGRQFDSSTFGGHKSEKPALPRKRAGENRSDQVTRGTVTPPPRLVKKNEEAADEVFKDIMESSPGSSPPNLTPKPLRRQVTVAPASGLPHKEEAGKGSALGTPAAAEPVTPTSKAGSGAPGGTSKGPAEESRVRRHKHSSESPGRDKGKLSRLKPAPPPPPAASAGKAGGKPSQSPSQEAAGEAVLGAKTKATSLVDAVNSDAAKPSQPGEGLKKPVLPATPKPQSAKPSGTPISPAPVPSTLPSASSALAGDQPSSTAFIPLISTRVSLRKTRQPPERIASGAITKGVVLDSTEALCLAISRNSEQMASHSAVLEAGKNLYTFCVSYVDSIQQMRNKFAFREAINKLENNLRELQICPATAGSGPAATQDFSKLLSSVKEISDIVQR
Chain of FGFR3(G697C) (P22607 whole entry G697C): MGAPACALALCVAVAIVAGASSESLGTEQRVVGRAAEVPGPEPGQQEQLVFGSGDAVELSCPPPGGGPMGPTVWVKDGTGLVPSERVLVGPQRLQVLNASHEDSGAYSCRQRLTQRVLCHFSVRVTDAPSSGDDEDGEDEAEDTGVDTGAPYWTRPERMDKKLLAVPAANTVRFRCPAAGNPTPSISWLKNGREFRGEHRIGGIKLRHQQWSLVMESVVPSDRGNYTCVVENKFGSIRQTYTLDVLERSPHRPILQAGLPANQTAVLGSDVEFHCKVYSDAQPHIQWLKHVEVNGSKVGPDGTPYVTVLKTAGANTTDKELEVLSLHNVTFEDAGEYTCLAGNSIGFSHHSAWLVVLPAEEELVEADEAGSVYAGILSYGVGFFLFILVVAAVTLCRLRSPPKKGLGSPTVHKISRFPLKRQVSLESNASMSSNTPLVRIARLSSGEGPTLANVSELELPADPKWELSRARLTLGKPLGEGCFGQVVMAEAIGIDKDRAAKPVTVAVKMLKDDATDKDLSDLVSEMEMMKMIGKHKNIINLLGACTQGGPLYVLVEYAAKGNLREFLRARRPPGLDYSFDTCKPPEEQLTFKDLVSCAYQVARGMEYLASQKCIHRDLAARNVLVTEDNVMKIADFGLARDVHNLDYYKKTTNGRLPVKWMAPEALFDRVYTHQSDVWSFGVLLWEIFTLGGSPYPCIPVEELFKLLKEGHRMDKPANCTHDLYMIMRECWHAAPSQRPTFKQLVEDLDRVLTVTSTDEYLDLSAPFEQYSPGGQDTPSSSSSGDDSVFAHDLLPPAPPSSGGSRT
Chain of KIT(V559D) (P10721 whole entry V559D): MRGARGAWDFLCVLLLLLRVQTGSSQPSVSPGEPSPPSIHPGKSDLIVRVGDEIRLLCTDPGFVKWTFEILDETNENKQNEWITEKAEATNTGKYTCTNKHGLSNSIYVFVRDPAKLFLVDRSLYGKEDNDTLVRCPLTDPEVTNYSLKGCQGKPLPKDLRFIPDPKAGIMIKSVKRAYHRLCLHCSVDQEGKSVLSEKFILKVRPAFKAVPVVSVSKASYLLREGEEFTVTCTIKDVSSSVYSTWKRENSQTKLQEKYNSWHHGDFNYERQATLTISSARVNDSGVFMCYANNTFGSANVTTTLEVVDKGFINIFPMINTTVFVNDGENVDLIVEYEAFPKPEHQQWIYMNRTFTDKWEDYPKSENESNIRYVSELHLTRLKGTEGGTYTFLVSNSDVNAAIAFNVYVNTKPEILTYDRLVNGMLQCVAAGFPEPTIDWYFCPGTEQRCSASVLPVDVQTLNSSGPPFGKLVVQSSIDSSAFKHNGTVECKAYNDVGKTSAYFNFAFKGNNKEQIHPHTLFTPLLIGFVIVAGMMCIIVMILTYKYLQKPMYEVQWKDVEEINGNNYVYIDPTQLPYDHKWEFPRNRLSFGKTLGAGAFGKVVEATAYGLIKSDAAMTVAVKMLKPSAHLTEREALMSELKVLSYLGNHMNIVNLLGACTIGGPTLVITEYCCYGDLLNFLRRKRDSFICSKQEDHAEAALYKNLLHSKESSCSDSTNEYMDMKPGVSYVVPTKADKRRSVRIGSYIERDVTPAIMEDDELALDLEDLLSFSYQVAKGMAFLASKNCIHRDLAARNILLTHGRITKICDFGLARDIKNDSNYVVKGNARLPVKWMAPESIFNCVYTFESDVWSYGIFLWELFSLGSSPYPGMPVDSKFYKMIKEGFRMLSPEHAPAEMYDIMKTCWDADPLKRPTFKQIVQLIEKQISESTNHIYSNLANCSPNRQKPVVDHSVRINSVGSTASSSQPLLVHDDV

Turning to `COc1cc2c(cn1)N(C)C(=O)[C@@H](NC(=O)c1nc3n(n1)[C@H](c1ccccc1)CC3)CC2` [GNE684, (S)-N-((S)-7-methoxy-1-methyl-2-oxo-2,3,4,5-tetrahydro-1H-pyrido[3,4-b]azepin-3-yl)-5-phenyl-6,7-dihydro-5H-pyrrolo[1,2-b][1,2,4]triazole-2-carboxamide], the remaining binding at 10 µM is 84% at ABL1-phosphorylated; 74% at AKT1; 100% at BUB1; 100% at CAMK2D; 93% on CDK5; 76% on DAPK3. The remaining binding at 10 µM at EPHA6 is 100%; on FAK, 85%; at FGFR3(G697C), 88%; at FLT3, 87%; on FRK it was 100%; at GRK4, 100%. In addition, the remaining binding at 10 µM came to 100% on KIT(V559D); 98% at LZK; 96% on MAK; 94% on PAK1; 100% on PAK2; 100% on PIK3CA(C420R). Also, the remaining binding at 10 µM on PKN1 turned out to be 94%; on PLK2 it was 97%; at TGFBR2, 94%; at YANK2, 84%.

These data come from paper PMC7206119, “RIP1 inhibition blocks inflammatory diseases but not tumor growth or metastases” (Cell Death and Differentiation, 2019).
